We go through five compounds from ChEMBL document CHEMBL5465560, “Selectivity Literature for EUbOPEN Chemogenomic Library” (2024).

A value given as a limit tells only on which side of the number the result lay.

The target in assay [1] is T1, Serine/threonine-protein kinase TAO2 (Homo sapiens) (UniProt Q9UL54).
T1 sequence (whole entry): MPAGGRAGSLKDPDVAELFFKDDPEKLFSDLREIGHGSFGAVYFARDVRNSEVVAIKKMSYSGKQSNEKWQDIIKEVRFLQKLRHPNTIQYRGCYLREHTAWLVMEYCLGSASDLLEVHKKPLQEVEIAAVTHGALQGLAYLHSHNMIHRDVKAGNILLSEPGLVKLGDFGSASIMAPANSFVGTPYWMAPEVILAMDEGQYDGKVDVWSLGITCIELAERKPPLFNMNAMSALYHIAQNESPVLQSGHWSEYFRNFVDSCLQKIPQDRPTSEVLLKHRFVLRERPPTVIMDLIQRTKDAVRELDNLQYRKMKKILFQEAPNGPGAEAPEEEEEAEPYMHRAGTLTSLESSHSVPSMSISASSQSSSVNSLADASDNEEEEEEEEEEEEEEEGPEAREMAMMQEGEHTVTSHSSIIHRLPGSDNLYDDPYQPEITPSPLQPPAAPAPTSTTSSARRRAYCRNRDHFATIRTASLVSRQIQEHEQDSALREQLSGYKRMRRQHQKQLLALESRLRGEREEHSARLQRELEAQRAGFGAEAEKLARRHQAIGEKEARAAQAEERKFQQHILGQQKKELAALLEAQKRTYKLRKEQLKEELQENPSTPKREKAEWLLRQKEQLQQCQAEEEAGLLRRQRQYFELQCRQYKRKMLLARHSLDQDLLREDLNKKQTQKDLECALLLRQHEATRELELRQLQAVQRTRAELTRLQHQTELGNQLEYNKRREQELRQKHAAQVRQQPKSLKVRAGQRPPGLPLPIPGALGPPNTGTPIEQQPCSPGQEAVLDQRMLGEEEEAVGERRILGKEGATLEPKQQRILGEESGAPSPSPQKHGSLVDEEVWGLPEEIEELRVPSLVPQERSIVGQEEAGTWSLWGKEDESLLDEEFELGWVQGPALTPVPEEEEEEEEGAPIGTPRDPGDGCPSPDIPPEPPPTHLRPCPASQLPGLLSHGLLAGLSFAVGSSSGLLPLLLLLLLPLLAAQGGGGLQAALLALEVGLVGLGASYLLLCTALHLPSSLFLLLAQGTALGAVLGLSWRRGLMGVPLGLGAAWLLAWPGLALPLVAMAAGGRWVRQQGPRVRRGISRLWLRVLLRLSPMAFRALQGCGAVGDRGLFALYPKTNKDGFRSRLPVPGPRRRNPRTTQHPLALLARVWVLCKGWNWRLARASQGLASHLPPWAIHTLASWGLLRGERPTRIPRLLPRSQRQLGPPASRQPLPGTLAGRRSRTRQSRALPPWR
Briefly: Selectivity interaction (SelectScreen profiling (Invitrogen)) EUB0000607a TAOK2. To be noted: at 2 µM.

Assay [2] deals with Cyclin-dependent kinase-like 1 (Homo sapiens) (UniProt Q00532). Nature of the assay: Selectivity interaction (KinomeScan (DiscoverX)) EUB0000607a CDKL1. To be noted: at 10 µM.
Assay [3] addresses T2, Serine/threonine-protein kinase DCLK2 (Homo sapiens) (UniProt Q8N568).
T2 sequence (whole entry): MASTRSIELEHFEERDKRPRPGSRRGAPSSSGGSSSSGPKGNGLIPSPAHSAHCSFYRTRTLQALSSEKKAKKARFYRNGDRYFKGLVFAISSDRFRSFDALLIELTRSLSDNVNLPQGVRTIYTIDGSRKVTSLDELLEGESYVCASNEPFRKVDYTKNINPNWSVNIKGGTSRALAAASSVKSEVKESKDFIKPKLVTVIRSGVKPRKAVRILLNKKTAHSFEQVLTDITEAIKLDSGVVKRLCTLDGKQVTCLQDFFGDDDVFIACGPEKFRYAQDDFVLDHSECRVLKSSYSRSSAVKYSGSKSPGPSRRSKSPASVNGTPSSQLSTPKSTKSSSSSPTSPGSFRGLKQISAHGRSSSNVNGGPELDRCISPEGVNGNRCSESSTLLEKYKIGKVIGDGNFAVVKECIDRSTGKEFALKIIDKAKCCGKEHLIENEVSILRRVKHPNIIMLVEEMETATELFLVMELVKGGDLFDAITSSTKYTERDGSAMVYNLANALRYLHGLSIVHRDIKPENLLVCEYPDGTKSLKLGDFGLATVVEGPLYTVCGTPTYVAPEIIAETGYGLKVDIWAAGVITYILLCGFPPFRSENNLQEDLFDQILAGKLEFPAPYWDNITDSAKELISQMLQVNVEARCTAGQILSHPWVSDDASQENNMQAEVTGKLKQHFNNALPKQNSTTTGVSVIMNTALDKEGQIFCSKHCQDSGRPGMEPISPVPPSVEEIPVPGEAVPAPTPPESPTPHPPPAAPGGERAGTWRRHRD
Nature of the assay: Selectivity interaction (KinomeScan (DiscoverX)) EUB0000655a DCLK2. The conditions noted are these: at 10 µM.

In assay [4] the target is T3, Tyrosine-protein kinase ZAP-70 (Homo sapiens) (UniProt P43403).
T3 sequence (whole entry): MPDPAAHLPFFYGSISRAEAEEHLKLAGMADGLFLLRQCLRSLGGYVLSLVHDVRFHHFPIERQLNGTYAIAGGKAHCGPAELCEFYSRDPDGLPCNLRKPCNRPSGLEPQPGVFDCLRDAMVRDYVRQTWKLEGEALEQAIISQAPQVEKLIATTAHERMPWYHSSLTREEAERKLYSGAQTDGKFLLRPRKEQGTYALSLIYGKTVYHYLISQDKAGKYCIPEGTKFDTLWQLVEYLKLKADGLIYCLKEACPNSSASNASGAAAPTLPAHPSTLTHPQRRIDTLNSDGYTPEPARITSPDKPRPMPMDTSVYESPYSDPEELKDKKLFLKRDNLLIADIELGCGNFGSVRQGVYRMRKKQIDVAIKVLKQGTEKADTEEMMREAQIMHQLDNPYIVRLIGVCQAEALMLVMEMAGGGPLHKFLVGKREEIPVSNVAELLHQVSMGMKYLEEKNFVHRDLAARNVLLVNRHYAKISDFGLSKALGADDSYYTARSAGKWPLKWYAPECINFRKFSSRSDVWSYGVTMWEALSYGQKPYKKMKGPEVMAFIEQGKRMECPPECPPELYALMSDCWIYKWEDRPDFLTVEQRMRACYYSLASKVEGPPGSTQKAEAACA
Briefly: Selectivity interaction (ActivX KiNativ screen (ex vivo kinase selectivity in human PBMCs)) EUB0001619a ZAP70. It counts as cell-based. To be noted: PBMC, at 1 µM.

Assay [5] has as its target Myosin light chain kinase 2, skeletal/cardiac muscle (Homo sapiens) (UniProt Q9H1R3). Nature of the assay: Selectivity interaction (KinomeScan (DiscoverX)) EUB0001619a MYLK2. The conditions noted are these: at 1 µM.
The target of assay [6] is Tyrosine-protein kinase ABL1 (Homo sapiens, UniProt P00519). Nature of the assay: Selectivity interaction (Kinase panel (Enzyme activity assay)) EUB0000612a ABL1.
In assay [7] the target is CDK8/Cyclin C (Homo sapiens) (UniProt P49336+P24863). Nature of the assay: Selectivity interaction (ProQinase) EUB0000171b CDK8. The class given is protein-complex assay.

Chain of Cyclin-dependent kinase-like 1 (Homo sapiens) (Q00532 whole entry): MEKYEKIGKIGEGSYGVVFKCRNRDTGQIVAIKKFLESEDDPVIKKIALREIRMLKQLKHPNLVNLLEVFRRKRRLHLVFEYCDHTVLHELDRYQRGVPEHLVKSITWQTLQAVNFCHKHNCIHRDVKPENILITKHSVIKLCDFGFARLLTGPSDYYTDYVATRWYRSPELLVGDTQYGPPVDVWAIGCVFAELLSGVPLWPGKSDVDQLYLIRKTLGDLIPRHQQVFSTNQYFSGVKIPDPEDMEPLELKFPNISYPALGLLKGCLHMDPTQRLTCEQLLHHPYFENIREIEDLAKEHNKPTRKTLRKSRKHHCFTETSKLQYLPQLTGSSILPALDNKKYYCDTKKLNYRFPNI
Chain of Myosin light chain kinase 2, skeletal/cardiac muscle (Homo sapiens) (Q9H1R3 whole entry): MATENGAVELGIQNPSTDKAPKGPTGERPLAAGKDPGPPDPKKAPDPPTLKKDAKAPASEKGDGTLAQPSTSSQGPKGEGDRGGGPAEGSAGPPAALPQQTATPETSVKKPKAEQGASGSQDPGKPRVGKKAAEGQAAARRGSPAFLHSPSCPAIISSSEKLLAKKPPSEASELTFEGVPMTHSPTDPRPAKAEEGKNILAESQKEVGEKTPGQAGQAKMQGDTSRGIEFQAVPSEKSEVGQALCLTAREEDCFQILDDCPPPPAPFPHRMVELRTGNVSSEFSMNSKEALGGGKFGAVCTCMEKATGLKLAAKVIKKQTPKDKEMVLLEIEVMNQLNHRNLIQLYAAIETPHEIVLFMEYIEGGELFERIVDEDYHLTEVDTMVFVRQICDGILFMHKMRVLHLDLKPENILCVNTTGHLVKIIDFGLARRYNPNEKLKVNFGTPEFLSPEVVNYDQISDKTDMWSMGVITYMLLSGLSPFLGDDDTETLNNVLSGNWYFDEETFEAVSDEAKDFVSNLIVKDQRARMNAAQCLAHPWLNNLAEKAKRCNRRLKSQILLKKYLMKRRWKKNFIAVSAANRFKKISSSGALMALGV
Chain of Tyrosine-protein kinase ABL1 (P00519 whole entry): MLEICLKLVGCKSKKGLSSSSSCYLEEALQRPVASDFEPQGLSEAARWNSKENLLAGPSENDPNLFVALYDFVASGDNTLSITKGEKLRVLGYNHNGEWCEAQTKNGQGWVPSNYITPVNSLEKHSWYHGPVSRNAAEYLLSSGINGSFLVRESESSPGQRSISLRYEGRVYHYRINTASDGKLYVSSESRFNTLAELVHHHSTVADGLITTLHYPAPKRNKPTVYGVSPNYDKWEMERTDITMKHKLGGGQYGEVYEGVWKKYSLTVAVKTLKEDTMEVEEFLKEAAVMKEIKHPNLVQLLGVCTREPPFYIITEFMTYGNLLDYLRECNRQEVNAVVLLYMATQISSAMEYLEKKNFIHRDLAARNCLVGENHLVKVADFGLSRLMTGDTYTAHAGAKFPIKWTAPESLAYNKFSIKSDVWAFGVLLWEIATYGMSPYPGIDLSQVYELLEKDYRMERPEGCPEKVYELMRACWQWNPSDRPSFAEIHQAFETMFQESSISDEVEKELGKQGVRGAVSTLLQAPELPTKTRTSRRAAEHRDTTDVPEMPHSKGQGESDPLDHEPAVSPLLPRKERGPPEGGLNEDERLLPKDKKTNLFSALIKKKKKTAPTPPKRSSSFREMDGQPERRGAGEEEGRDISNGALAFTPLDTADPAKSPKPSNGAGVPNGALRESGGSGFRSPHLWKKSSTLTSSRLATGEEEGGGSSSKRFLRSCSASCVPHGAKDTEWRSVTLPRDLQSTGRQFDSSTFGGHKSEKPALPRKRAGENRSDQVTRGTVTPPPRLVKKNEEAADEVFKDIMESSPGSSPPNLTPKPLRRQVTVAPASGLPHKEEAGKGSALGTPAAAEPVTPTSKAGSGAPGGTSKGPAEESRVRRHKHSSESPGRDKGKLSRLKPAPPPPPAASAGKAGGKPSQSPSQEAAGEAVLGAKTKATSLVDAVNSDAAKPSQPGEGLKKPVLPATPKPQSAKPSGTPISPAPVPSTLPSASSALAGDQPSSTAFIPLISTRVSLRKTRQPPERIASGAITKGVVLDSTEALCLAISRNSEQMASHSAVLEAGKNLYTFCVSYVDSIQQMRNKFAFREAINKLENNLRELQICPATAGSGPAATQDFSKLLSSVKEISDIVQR

`CNC(=O)Nc1ccc(-c2nc(N3CC4CCC(C3)O4)c3cnn(C4CCC5(CC4)OCCO5)c3n2)cc1`: in assay [1], the % of inhibition is 3%. The % of control in assay [2] was 84%. `CN(C)CCOc1ccc(-c2nc(-c3ccncc3)c(-c3ccc4c(c3)CC/C4=N\O)[nH]2)cc1`: the % of control in assay [3] came out at 100%. In assay [4], `N#Cc1cccc(-c2c[nH]c3ncnc(N4CCOCC4)c23)c1` registered a % of inhibition of 7%. The compound also yielded a % of control in assay [5] of 92%. With `CCc1cccc(CC)c1NC(=O)c1nn(C)c2c1CCc1cnc(Nc3ccc(C(=O)NC4CCN(C)CC4)cc3OC(F)(F)F)nc1-2`, the IC50 in assay [6] was more than 10 µM. Consider `C=CC(=O)Nc1cccc(C(=O)Nc2ccc(Nc3cc(-c4[nH]c(SC)nc4C)ccn3)cc2)c1`, for which the % of control in assay [7] (at 1 µM) came to 67%; in assay [7] (at 5 µM), 29%.
